Measured values reported in patent US9862693B2, “Compounds and methods of treating cancer” (The Regents of the University of California, priority 2012, dated 2018).
“Also recorded” adds a separate entry of the source. Where a name gives a salt, the structure may show the parent alone.

Experiments:
HCC1806 = experiment: MTS cell number assay (CellTiter 96), TNBC cells; format: cell-based; details: 1 mM, 72 hours, MTS method
Protocol: (§1) FIGS. 2A-2D. Metformin analogues inhibit growth/survival of triple negative breast cancer cells. MDA-MB-231 (FIG. 2A), HCC38 (FIG. 2B), HCC1937 (FIG. 2C) and HCC1806 (FIG. 2D) cells were cultured in medium containing 1% fetal bovine serum and increasing concentrations of metformin and analogues JD001-JD009 (0.1, 1 and 5 mM). After 3 days, MTS assay was performed. The percentage of surviving cells relative to controls, defined as 100% survival, was determined by the MTS assay.
(§2) Cells were incubated in the presence of vehicle, metformin or metformin analogues for 72 hours in their respective media. After treatment cell numbers were determined with the MTS method using the CellTiter 96 Aqueous Non-Radioactive Cell Proliferation Assay (Promega). Numbers express percentage of vehicle treated controls at 1 mM concentration metformin or metformin analogues (JD001-JD009). TNBC: Triple Negative Breast Cancer Cells, ER+BC: Estrogen receptor positive breast cancer.

HCC1937 = experiment: MTS cell number assay (CellTiter 96), TNBC cells; format: cell-based; details: 1 mM, 72 hours, MTS method
Protocol: as §1, §2

HCC38 = experiment: MTS cell number assay (CellTiter 96), TNBC cells; format: cell-based; details: 1 mM, 72 hours, MTS method
Protocol: as §1, §2

MDA-MB-231 = experiment: MTS cell number assay (CellTiter 96), TNBC cells; format: cell-based; details: Homo sapiens, 1 mM, 72 hours, MTS method, read-out: Biodata TNBC MDA-MB-231, cell numbers as percentage of vehicle treated controls
Protocol: as §1, §2

MCF7 = experiment: MTS cell number assay (CellTiter 96), ER+ breast cancer cells; format: cell-based; details: Homo sapiens, 1 mM, 72 hours, MTS method, read-out: ER+ BC MCF7, cell numbers as percentage of vehicle treated controls
Protocol: FIG. 1. Metformin analogues inhibit growth/survival of ER+ MCF7 breast cancer cells. MCF7 cells were cultured in medium containing different concentrations of metformin and analogues (0.1, 1 and 5 mM). After 3 days, the percentage of surviving cells relative to controls, defined as 100% survival, was determined by the MTS assay. Data represents three independent experiments.
Compounds described herein (e.g. metformin derivatives and/or analogues) were tested in human MCF-7 breast cancer cells, a standard ERalpha-positive model of breast malignancy (FIG. 1), and in four different cell lines classified as TNBC, including MDA-MB-231, HCC1937, HCC38 and HCC1806 (FIGS. 2A-2D). […] Experiments were also performed in: 1) a non-small cell lung cancer cell line that is known to be resistant to standard chemotherapy (A549); and 2) a melanoma-like cell model (MDA-MB-435). To find if analogues have effects on normal cells compounds were tested in two different types of cells, human umbilical vein endothelial cells (HUVEC) and human mammary epithelial cells (HMEC). The effects of metformin (MET) were compared with compounds JD001-JD009.
as §2

HMEC = experiment: MTS cell number assay (CellTiter 96), normal cells; format: cell-based; details: Homo sapiens, 1 mM, 72 hours, MTS method, read-out: Biodata Normal HMEC, cell numbers as percentage of vehicle treated controls
Protocol: (§3) FIGS. 4A-4B. Effects of metformin and metformin analogues on normal cells. HMEC (FIG. 4A) and HUVEC (FIG. 4B) cells were plated in special media. After 24 hours, cells were treated with increasing concentrations of metformin and analogues JD001-JD009 (0.1, 1 and 5 mM). After 3 days, MTS assay was performed. Survival is expressed as percentage of vehicle treated control. Data represents at least two experiments.
(§4) The effects of compounds described herein (including embodiments) (e.g. metformin analogues) were determined on two types of normal nonmalignant human cells, human umbilical vein endothelial cells (HUVEC) and human mammary epithelial cells (HMEC). There were no significant biologic effects noted on exposure to the metformin analogues.
as §2

HUVEC = experiment: MTS cell number assay (CellTiter 96), normal cells; format: cell-based; details: Homo sapiens, 1 mM, 72 hours, MTS method, read-out: Biodata Normal HUVEC, cell numbers as percentage of vehicle treated controls
Protocol: as §3, §4, §2

A549 = experiment: MTS cell number assay (CellTiter 96), NSCLC cells; format: cell-based; details: Homo sapiens, 1 mM, 72 hours, MTS method, read-out: Biodata extra A549, cell numbers as percentage of vehicle treated controls
Protocol: (§5) FIGS. 3A-3B. Metformin analogues inhibit survival of non-small cell lung cancer (NSCLC) (FIG. 3A) and melanoma cell lines (FIG. 3B). A549 (NSCLC) and MDA-MB-435 (melanoma) cells were cultured in medium containing 1% fetal bovine serum and increasing concentrations of metformin (MET) and analogues JD001-JD007 (0.1, 1 and 5 mM). After 3 days, MTS assay was performed. Survival is expressed as percentage of control defined at 100%.
as §2

MDA-MB-435 = experiment: MTS cell number assay (CellTiter 96), melanoma cells; format: cell-based; details: 1 mM, 72 hours, MTS method
Protocol: as §5, §2

[1] = tested on: triple-negative breast cancer cell lines; details: literature refs (2,3); cited from earlier work
[2] = tested on: MIAPaCa-2 and PANC-1 cells xenografted in nude mice; details: reported; cited from earlier work
PANC-1 cells = experiment: Pancreatic cancer cell proliferation in vitro (cell counts); format: cell-based, human; details: 0.01, 0.1 and 1 mM, 72 hrs, 1% FBS, P<0.01, hydrochloride
Protocol: FIG. 5. […] Cells were counted and plated. At 24 hrs after plating, cells were treated with metformin and JD003 at 0.01 mM, 0.1 mM, and 1 mM concentrations using medium with 1% FBS. After 72 hrs, cell proliferation was quantitated based on cell counts. Experiments were done 3-times, with results expressed as percent control (mean±SE).
We hypothesize that metformin analogs can be prepared with enhanced anticancer activity and minimal non-target toxicity. […] Human pancreatic cancer cells PANC-1, were grown in DMEM with 2 mM glutamine, 1 mM sodium pyruvate, 100 units/mL penicillin, 100 μg/mL streptomycin and 10% FBS at 37 C in a humidified atmosphere with 10% CO2. Then, effects of treatment with metformin or analog JD003 on cell proliferation in vitro were tested. […] To find if analogs may have deleterious effects on normal human cells, we compared the cellular activity of metformin with that of analogs JD003 and JD004 using a pair of human breast epithelial cells. These included human mammary epithelial cells (HMEC) and MCF-7 tumor cells (MCF-7). […] In contrast, minimal antiproliferative effects are detected in nonmalignant human epithelial cells.

MCF-7 cells = experiment: Cell proliferation ELISA, BrdU colorimetric kit; format: cell-based, human; details: 0.1 mM and 1 mM, BrdU incorporation, 1% FBS, P<0.01; hydrochloride
Protocol: FIGS. 6A-6C. […] Proliferation was assessed using cell proliferation ELISA, BrdU colorimetric kit (Roche). Cells were counted using a hemocytometer and plated. After 24 hrs, cells were treated with metformin and analogs JD003 and JD004 at 0.1 mM and 1 mM doses using phenol-red free medium with 1% FBS. After 48 hr, BrDU labeling solution was added and incubated for 24 h. Proliferation was assessed using BrDU incorporation by ELISA during DNA synthesis in proliferating cells. Data shown as % control (mean±SE) (n=3 experiments).
We hypothesize that metformin analogs can be prepared with enhanced anticancer activity and minimal non-target toxicity. […] Human pancreatic cancer cells PANC-1, were grown in DMEM with 2 mM glutamine, 1 mM sodium pyruvate, 100 units/mL penicillin, 100 μg/mL streptomycin and 10% FBS at 37 C in a humidified atmosphere with 10% CO2. Then, effects of treatment with metformin or analog JD003 on cell proliferation in vitro were tested. […] In contrast, minimal antiproliferative effects are detected in nonmalignant human epithelial cells. […]
Cell proliferation screening assays were done using cell proliferation ELISA, BrdU colorimetric kit (Roche). Cells were counted using a hemocytometer and plated in 96-well plates. […] Cell proliferation were quantitated based on measures of BrDU incorporation (by ELISA) during DNA synthesis in proliferating cells. […] Results were expressed as mean±SE. […]

Row | SMILES | Biodata TNBC HCC1806, cell numbers as percentage of vehicle treated controls (HCC1806) | Biodata TNBC HCC1937, cell numbers as percentage of vehicle treated controls (HCC1937) | Biodata TNBC HCC38, cell numbers as percentage of vehicle treated controls (HCC38) | viability at 1000 µM (MDA-MB-231) [%] | viability at 1000 µM (MCF7) [%] | viability at 1000 µM (HMEC) [%] | viability at 1000 µM (HUVEC) [%] | viability at 1000 µM (A549) [%] | Biodata extra MDA-MB-435, cell numbers as percentage of vehicle treated controls (MDA-MB-435) | Antitumor activity against triple-negative breast cancer cell lines [1] | Growth of xenografted pancreatic cancer cells [2] | Inhibition of pancreatic cancer cell proliferation compared with metformin (PANC-1 cells) | Blocking proliferation of MCF-7 cells compared with metformin (MCF-7 cells)
1 | CN(C)C(=N)NC(=N)N [Metformin (000), 1,1-dimethyl-biguanide hydrochloride, reference compound] | 90.2 percentage of vehicle treated controls | 92.9 percentage of vehicle treated controls | 92.5 percentage of vehicle treated controls | 110 | 105 | 99.8 | 83.9 | 72.2 | 77.7 percentage of vehicle treated controls | only at high millimolar concentrations | significantly decrease growth |  | 
2 | N=C(NC(=N)N1CCOCC1)N1CCOCC1 [JD003, N-(Imino(morpholino)methyl)morpholine-4-carboximidamide hydrochloride] |  | 37.8 percentage of vehicle treated controls |  | 93.2 | 61.3 | 107 | 86.7 | 98 | 50.4 percentage of vehicle treated controls |  |  | significantly greater inhibition of pancreatic cancer cell proliferation in vitro than parent compound metformin; also recorded: shows promise as a congener with more potent antitumor activity | more effective in blocking proliferation of MCF-7 cells; also recorded: enhanced antiproliferative activity in breast cancer cells as compared to metformin
